For experiment [1], the target named is T1, OGT (Homo sapiens, UniProt O15294).
T1 construct: hOGT4.5 construct (spanning residues 313-1031 based on the numbering of the full length human protein); made in house
T1 sequence (O15294 313-1031 isoform O15294-3): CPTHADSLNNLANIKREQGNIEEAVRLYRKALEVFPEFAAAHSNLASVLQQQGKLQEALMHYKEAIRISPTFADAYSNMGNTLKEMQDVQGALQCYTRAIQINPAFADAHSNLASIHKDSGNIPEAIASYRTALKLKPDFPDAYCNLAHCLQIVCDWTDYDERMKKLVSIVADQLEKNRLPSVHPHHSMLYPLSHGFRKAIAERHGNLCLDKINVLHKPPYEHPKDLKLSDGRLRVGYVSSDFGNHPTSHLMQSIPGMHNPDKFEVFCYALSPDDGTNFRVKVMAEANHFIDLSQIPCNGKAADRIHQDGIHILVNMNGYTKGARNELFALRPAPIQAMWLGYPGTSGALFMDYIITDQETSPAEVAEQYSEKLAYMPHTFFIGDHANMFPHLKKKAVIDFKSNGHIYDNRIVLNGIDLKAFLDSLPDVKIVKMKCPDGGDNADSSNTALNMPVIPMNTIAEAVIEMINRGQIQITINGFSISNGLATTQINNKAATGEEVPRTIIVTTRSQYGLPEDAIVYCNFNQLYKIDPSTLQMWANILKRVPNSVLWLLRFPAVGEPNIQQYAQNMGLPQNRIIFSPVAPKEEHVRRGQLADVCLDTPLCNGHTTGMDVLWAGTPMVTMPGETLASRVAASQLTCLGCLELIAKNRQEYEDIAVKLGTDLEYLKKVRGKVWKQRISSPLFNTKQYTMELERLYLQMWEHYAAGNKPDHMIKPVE
The experiment in a line: Time-dependent inactivation of OGT with BZX compounds. In kind it is biochemical. The source says: Compound (1) was identified in a high-throughput screen of 65,000 compounds (FIG. 1). See, e.g., Gross et al., J. Am. Chem. Soc. (2005) 127:14588-14589. It contains a dicarbamate moiety that links two aromatic groups. This compound features a conjugated chemical structure and both carbamate carbonyls are potentially reactive. See, e.g., Alexander et al., Chem. Biol. (2005) 12:1179-1187. […] A small panel of related compounds was made from commercially available building blocks in order to identify structural features that might improve potency. Time-dependent inactivation studies were carried out in which OGT was preincubated with a three-fold excess of each compound for 5 min, and the mixture was then diluted 100-fold into buffer containing UDP-^14C-GlcNAc and the well-characterized peptide substrate, CKII. See, e.g., Kreppel et al., J. Biol. Chem. (1999) 274:32015-32022). Enzyme activity was measured using a previously developed peptide capture assay. See, e.g., Gross et al., J. Am. Chem. Soc. (2005) 127:14588-14589.
Each BZX compound (7.5 μM) was preincubated with 5 μM OGT in reaction buffer (125 mM NaCl, 1 mM EDTA, 20 mM potassium phosphate, pH 7.4, and 500 μM tris(hydroxypropyl)phosphine (THP)) at room temperature for different amount of time, then diluted 100-fold, mixed with substrates (6 μM UDP-^14C-GlcNAc and 500 μM CKII peptide (KKKYPGGSTPVSSANMM)) and allowed to react for another 2 h. Enzyme activity was tested with the peptide capture assay as previously reported. See, e.g., Gross et al., J. Am. Chem. Soc. (2005) 127:14588-14589. The final volume of each reaction was 20 μl, and the experiments were conducted in triplicate. The activities of OGT mutants were also tested in triplicate as previously reported. See, e.g., Gross supra.

Experiment [2] concerns the target T1, OGT. In words: IC50 assay, OGT peptide-capture assay. The format is biochemical. The conditions noted are these: peptide-capture assay, different concentrations of each compound, read-out: IC50 Values. The method, then:
IC50 Assay of Thiocarbamate to OGT.
Enzyme activity was tested with the peptide-capture assay in the presence of different concentrations of each compound as previously reported (J. Am. Chem. Soc. 2005, 127, 14588-14589).

With `COc1ccc(OC(=O)n2c(=O)oc3cc(C(C)=O)ccc32)cc1` [Compound 1], the “OGT enzyme activity after preincubation with compound” value at OGT [1] (three-fold excess of compound, 5 min preincubation, then diluted 100-fold) is given as “irreversible loss of enzyme activity”.

In the case of `COc1ccc(OC(=O)n2c(=O)oc3ccc(Cl)cc32)cc1` [Compound 3], on OGT [2], the IC50 was 18 µM.

Turning to `O=C(Oc1ccccc1)n1c(=O)oc2cc([N+](=O)[O-])ccc21` [Compound 4], the IC50 at OGT [2] amounted to 60 µM.

With `O=C(Oc1ccccc1)n1c(=O)oc2ccccc21` [Compound 5], the IC50 at OGT [2] is above 100 µM.

For the compound `COc1ccc2c(c1)oc(=O)n2C(=O)Oc1ccccc1` [Compound 6], at OGT [2], the half-inhibitory concentration (IC50) is around 100 µM. Further, on OGT [1] (1.5:1 inhibitor:enzyme ratio), the “inactivation time course of OGT” value is “no inhibition”.

Values taken from patent publication US9573911B2, “Diphosphate mimetics and uses thereof” (President and Fellows of Harvard College, priority 2011, dated 2017).
